Patent US8334382B2, “Substituted biaryl piperazinyl-pyridine analogues” (Neurogen Corporation, priority 2004, dated 2012)

Target: T1, human capsaicin receptor (Homo sapiens, UniProt Q8NER1)
T1 construct: expressed in transfected cells; host or cells: HEK293, stably transfected with pBK-CMV construct
Assay: Calcium mobilization assay, determination of antagonist activity
Assay type: cell-based
Settings: capsaicin at EC50; cells expressing human capsaicin receptor; Example 6
Experimental: A cDNA encoding full length human capsaicin receptor (SEQ ID NO:1, 2 or 3 of U.S. Pat. No. 6,482,611) is subcloned in the plasmid pBK-CMV (Stratagene, La Jolla, Calif.) for recombinant expression in mammalian cells.
Human embryonic kidney (HEK293) cells are transfected with the pBK-CMV expression construct encoding the full length human capsaicin receptor using standard methods. The transfected cells are selected for two weeks in media containing G418 (400 μg/ml) to obtain a pool of stably transfected cells. Independent clones are isolated from this pool by limiting dilution to obtain clonal stable cell lines for use in subsequent experiments.
Cells transfected with expression plasmids (as described in Example 4) and thereby expressing human capsaicin receptor are seeded and grown to 70-90% confluency in FALCON black-walled, clear-bottomed 96-well plates (#3904, BECTON-DICKINSON, Franklin Lakes, N.J.). The culture medium is emptied from the 96 well plates and FLUO-3 AM calcium sensitive dye (Molecular Probes, Eugene, Oreg.) is added to each well (dye solution: 1 mg FLUO-3 AM, 440 μL DMSO and 440 μl 20% pluronic acid in DMSO, diluted 1:250 in Krebs-Ringer HEPES (KRH) buffer (25 mM HEPES, 5 mM KCl, 0.96 mM NaH2PO4, 1 mM MgSO4, 2 mM CaCl2, 5 mM glucose, 1 mM probenecid, pH 7.4), 50 μl diluted solution per well). Plates are covered with aluminum foil and incubated at 37° C. for 1-2 h in an environment containing 5% CO2. After the incubation, the dye is emptied from the plates, and the cells are washed once with KRH buffer, and resuspended in KRH buffer.
To measure the ability of a test compound to agonize or antagonize a calcium mobilization response in cells expressing capsaicin receptors to capsaicin or other vanilloid agonist, the EC50 of the agonist capsaicin is first determined. An additional 20 μl of KRH buffer and 1 μl DMSO is added to each well of cells, prepared as described above. 100 μl capsaicin in KRH buffer is automatically transferred by the FLIPR instrument to each well. Capsaicin-induced calcium mobilization is monitored using either FLUOROSKAN ASCENT (Labsystems; Franklin, Mass.) or FLIPR (fluorometric imaging plate reader system; Molecular Devices, Sunnyvale, Calif.) instruments. Data obtained between 30 and 60 seconds after agonist application are used to generate an 8-point concentration response curve, with final capsaicin concentrations of 1 nM to 3 μM. KALEIDAGRAPH software (Synergy Software, Reading, Pa.) is used to fit the data to the equation: y=a*(1/(1+(b/x)^c)) to determine the 50% excitatory concentration (EC50) for the response. In this equation, y is the maximum fluorescence signal, x is the concentration of the agonist or antagonist (in this case, capsaicin), a is the Emax, b corresponds to the EC50 value and c is the Hill coefficient. Determination of Agonist Activity
Test compounds are dissolved in DMSO, diluted in 20 μl KRH buffer so that the final concentration of test compounds in the assay well is between 1 μM and 5 μM, and added to cells prepared as described above. The 96 well plates containing prepared cells and test compounds are incubated in the dark, at room temperature for 0.5 to 6 h. It is important that the incubation not continue beyond 6 h. Just prior to determining the fluorescence response, 100 μl capsaicin in KRH buffer at twice the EC50 concentration determined as described above is automatically added by the FLIPR instrument to each well of the 96 well plate for a final sample volume of 200 μl and a final capsaicin concentration equal to the EC50. The final concentration of test compounds in the assay wells is between 1 μM and 5 μM. […] The concentration of antagonist required to provide a 50% decrease, relative to the response observed in the presence of capsaicin and without antagonist, is the IC50 for the antagonist, and is preferably below 1 micromolar, 100 nanomolar, 10 nanomolar or 1 nanomolar.

T1 sequence (Q8NER1 whole entry): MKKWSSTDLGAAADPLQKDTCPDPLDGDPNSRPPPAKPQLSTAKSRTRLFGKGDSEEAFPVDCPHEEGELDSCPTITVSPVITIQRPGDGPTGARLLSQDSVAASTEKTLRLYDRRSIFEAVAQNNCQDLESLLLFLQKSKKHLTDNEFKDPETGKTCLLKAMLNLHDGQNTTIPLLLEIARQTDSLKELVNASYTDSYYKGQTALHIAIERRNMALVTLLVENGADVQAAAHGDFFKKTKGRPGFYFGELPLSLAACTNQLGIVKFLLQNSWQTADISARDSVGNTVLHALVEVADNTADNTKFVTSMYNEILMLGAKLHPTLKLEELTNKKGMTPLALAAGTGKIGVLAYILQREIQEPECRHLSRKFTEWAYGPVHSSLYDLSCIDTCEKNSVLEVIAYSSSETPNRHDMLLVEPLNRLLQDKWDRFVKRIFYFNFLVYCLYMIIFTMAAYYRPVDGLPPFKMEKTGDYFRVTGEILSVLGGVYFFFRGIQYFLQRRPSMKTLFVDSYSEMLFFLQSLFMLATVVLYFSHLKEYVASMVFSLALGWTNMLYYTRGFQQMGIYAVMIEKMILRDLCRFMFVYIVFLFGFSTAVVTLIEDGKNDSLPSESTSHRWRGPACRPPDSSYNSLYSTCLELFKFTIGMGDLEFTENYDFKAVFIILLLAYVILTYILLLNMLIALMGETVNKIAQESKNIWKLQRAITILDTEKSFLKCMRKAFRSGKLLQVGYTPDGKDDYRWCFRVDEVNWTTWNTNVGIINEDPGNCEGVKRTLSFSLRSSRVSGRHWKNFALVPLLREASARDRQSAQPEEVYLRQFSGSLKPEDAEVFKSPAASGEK

IC50 [nM] | Compound
≤ 1000 | COCCNC(=O)c1cnc(N2CCN(c3cc(-c4ccc(F)cc4)nc(N4CCCC4C)n3)CC2)c(C)c1 (stereo not shown) [Example 109, 6-{4-[6-(4-fluorophenyl)-2-(2-methylpyrrolidin-1-yl)pyrimidin-4-yl]piperazin-1-yl}-N-(2-methoxyethyl)-5-methylnicotinamide]
≤ 1000 | CC(O)c1cnc(N2CCN(c3cc(-c4ccc(F)cc4)nc(N4CCCC4C)n3)CC2)c(Cl)c1 (stereo not drawn) [Example 148, l-(5-Chloro-6-{4-[6-(4-fluoro-phenyl)-2-(2-methyl-pyrrolidin-1-yl)-pyrimidin-4-yl]-piperazin-1-yl}-pyridin-3-yl)-ethanol]
≤ 1000 | C[C@@H]1CN(c2ncc(C(N)=O)cc2Cl)CCN1c1cc(-c2ccc(F)c(Cl)c2)nc(N2CCC[C@H]2C)n1 [Example 102, 5-Chloro-6-{4-[6-(3-chloro-4-fluoro-phenyl)-2-(2-(R)-methyl-pyrrolidin-l-yl)-pyrimidin-4-yl]-3-(R)-methyl-piperazin-1-yl}-nicotinamide]
≤ 1000 | CC1CCCN1c1nc(-c2ccc(F)cc2)cc(N2CCN(c3ncc(C(=O)O)cc3Cl)C[C@H]2C)n1 (stereo partly drawn) [Example 29, 5-Chloro-6-{4-[6-(4-fluoro-phenyl)-2-(2-methyl-pyrrolidin-1-yl)-pyrimidin-4-yl]-3-(R)-methyl-piperazin-1-yl}-nicotinic acid]
≤ 1000 | Cc1cc(CO)cnc1N1CCN(c2cc(-c3ccnc(C(C)C)c3)nc(N3CCCC3C)n2)[C@H](C)C1 (stereo partly drawn) [Example 66, (6-{4-[6-(2-Isopropyl-pyridin-4-yl)-2-(2-methyl-pyrrolidin-1-yl)-pyrimidin-4-yl]-3-(R)-methyl-piperazin-1-yl}-5-methyl-pyridin-3-yl)-methanol]
≤ 1000 | Cc1cc(C(N)=O)cnc1N1CCN(c2cc(-c3ccc(F)cc3)nc(N3CCCC3C)n2)[C@H](C)C1 (stereo partly drawn) [Example 44, 6-{4-[6-(4-Fluoro-phenyl)-2-(2-methyl-pyrrolidin-1-yl)-pyrimidin-4-yl]-3-(R)-methyl-piperazin-1-yl}-5-methyl-nicotinamide]
≤ 1000 | Cc1cc(C(=O)NC2CC2)cnc1N1CCN(c2cc(-c3ccc(F)cc3)nc(N3CCCC3C)n2)CC1 (stereo not shown) [Example 106, N-Cyclopropyl-6-{4-[6-(4-fluoro-phenyl)-2-(2-methyl-pyrrolidin-1-yl)-pyrimidin-4-yl]-piperazin-1-yl}-5-methyl-nicotinamide]
≤ 1000 | C[C@@H]1CN(c2ncc(CO)cc2Cl)CCN1c1cc(-c2ccc(F)c(Cl)c2)nc(N2CCCCC2)n1 [Example 173, (5-Chloro-6-{4-[6-(3-chloro-4-fluoro-phenyl)-2-piperidin-1-yl-pyrimidin-4-yl]-3-(R)-methyl-piperazin-1-yl}-pyridin-3-yl)-methanol]

The remaining lines, values behind:

Compound | IC50 [nM]
Cc1cc(C(=O)N2CCN(C3CCCC3)CC2)cnc1N1CCN(c2cc(-c3ccc(F)cc3)nc(N3CCCC3C)n2)CC1 (stereo not shown) [Example 133, 4-(4-{5-[(4-cyclopentylpiperazin-1-yl)carbonyl]-3-methylpyridin-2-yl}piperazin-1-yl)-6-(4-fluorophenyl)-2-(2-methylpyrrolidin-1-yl)pyrimidine] | ≤ 1000
CNCc1cnc(N2CCN(c3cc(-c4ccc(F)c(Cl)c4)nc(N4CCCC4C)n3)CC2)c(Cl)c1 (stereo not shown) [Example 11, (5-Chloro-6-{4-[6-(3-chloro-4-fluoro-phenyl)-2-(2-methyl-pyrrolidin-1-yl)-pyrimidin-4-yl]-piperazin-1-yl}-pyridin-3-ylmethyl)-methyl-amine] | ≤ 1000
Cc1cc(CC(=O)O)cnc1N1CCN(c2cc(-c3ccc(F)cc3)nc(N3CCC[C@H]3C)n2)[C@H](C)C1 [Example 105, (6-{4-[6-(4-Fluoro-phenyl)-2-(2-(R)-methyl-pyrrolidin-1-yl)-pyrimidin-4-yl]-3-(R)-methyl-piperazin-1-yl}-5-methyl-pyridin-3-yl)-acetic acid] | ≤ 1000
CCOC(=O)c1cnc(N2CCN(c3cc(-c4cccc(C)c4)nc(N4CCCC4C)n3)[C@H](C)C2)c(C)c1 (stereo partly drawn) [Example 59, 5-Methyl-6-{3-(R)-methyl-4-[2-(2-methyl-pyrrolidin-1-yl)-6-m-tolyl-pyrimidin-4-yl]-piperazin-1-yl}-nicotinic acid ethyl ester] | ≤ 1000
CC1CCCN1c1nc(-c2ccc(F)c(Cl)c2)cc(N2CCN(c3ncc(CO)cc3Cl)C[C@H]2C)n1 (stereo partly drawn) [Example 13, (5-Chloro-6-{4-[6-(3-chloro-4-fluoro-phenyl)-2-(2-methyl-pyrrolidin-1-yl)-pyrimidin-4-yl]-3-(R)-methyl-piperazin-1-yl}-pyridin-3-yl)-methanol] | ≤ 1000
C[C@@H]1CN(c2ncc(CO)cc2Cl)CCN1c1cc(-c2ccc(F)cc2)nc(N2CCCC2)n1 [Example 32, (5-Chloro-6-{4-[6-(4-fluoro-phenyl)-2-pyrrolidin-1-yl-pyrimidin-4-yl]-3-(R)-methyl-piperazin-1-yl}-pyridin-3-yl)-methanol] | ≤ 1000
Cc1cc(C(=O)O)cnc1N1CCN(c2cc(-c3ccc(F)cc3)nc(N3CCC[C@H]3C)c2)[C@H](C)C1 [Example 172, 6-{4-[2-(4-Fluoro-phenyl)-6-(2-(R)-methyl-pyrrolidin-1-yl)-pyridin-4-yl]-3-(R)-methyl-piperazin-1-yl}-5-methyl-nicotinic acid] | ≤ 1000
Cc1cc(-c2cc(N3CCN(c4ncc(C(=O)O)cc4C)C[C@H]3C)cc(N3CCC[C@H]3C)n2)ccc1F [Example 176, 6-{4-[2-(4-Fluoro-3-methyl-phenyl)-6-(2-(R)-methyl-pyrrolidin-1-yl)-pyridin-4-yl]-3-(R)-methyl-piperazin-1-yl}-5-methyl-nicotinic acid] | ≤ 1000
CC1CCCN1c1nc(-c2ccc(F)cc2)cc(N2CCN(c3ncc(C(=O)O)cc3Cl)CC2)n1 (stereo not shown) [Example 25, 5-Chloro-6-{4-[6-(4-fluoro-phenyl)-2-(2-methyl-pyrrolidin-1-yl)-pyrimidin-4-yl]-piperazin-1-yl}-nicotinic acid] | ≤ 1000
CCOC(=O)c1cnc(N2CCN(c3cc(-c4ccnc(C(C)C)c4)nc(N4CCCC4C)n3)[C@H](C)C2)c(Cl)c1 (stereo partly drawn) [Example 43, 5-Chloro-6-{4-[6-(2-isopropyl-pyridin-4-yl)-2-(2-methyl-pyrrolidin-1-yl)-pyrimidin-4-yl]-3-(R)-methyl-piperazin-1-yl}-nicotinic acid ethyl ester] | ≤ 1000
CCCN1CCN(c2nc(-c3ccc(F)c(Cl)c3)cc(N3CCN(c4ncc(C(=O)OCC)cc4Cl)CC3)n2)CC1 [Example 23, 5-Chloro-6-{4-[6-(3-chloro-4-fluoro-phenyl)-2-(4-propyl-piperazin-l-yl)-pyrimidin-4-yl] - piperazin-1-yl}-nicotinic acid ethyl ester] | ≤ 1000
COc1ccc(CNC(=O)c2cnc(N3CCN(c4cc(-c5ccc(F)cc5)nc(N5CCCC5C)n4)CC3)c(C)c2)cc1 (stereo not shown) [Example 115, 6-{4-[6-(4-fluorophenyl)-2-(2-methylpyrrolidin-1-yl)pyrimidin-4-yl]piperazin-1-yl}-N-(4-methoxybenzyl)-5-methylnicotinamide] | ≤ 1000
Cc1cc(C(=O)O)cnc1N1CCN(c2cc(-c3cncc(Cl)c3)nc(N3CCC[C@H]3C)c2)[C@H](C)C1 [Example 180, 6-{4-[5′-Chloro-6-(2-(R)-methyl-pyrrolidin-1-yl)-[2,3′]bipyridinyl-4-yl]-3-(R)-methyl-piperazin-1-yl}-5-methyl-nicotinic acid] | ≤ 1000
CCCN1CCN(c2nc(-c3ccc(F)c(Cl)c3)cc(N3CCN(c4ncc(CO)cc4Cl)CC3)n2)CC1 [Example 16, (5-Chloro-6-{4-[6-(3-chloro-4-fluoro-phenyl)-2-(4-propyl-piperazin-1-yl)-pyrimidin-4-yl]-piperazin-1-yl}-pyridin-3-yl)-methanol] | ≤ 1000
